Data: patent US20100168099A1, “1H-QUINOLIN-4-ONE COMPOUNDS, WITH AFFINITY FOR THE GABA RECEPTOR, PROCESSES, USES AND COMPOSITIONS” (FERRER INTERNACIONAL, S.A., priority 2006, published 2010)

Key:
[1] = tested on: spontaneous motor activity of male CD1 mice; experiment: In vivo predictive sedation-hypnosis test (traveled distance); conditions: Mus musculus, ip, 0.5 h, 98 μmol/kg, single intraperitoneal dose, 30 minutes after dosing (first 5 min discarded), versus control
Method: b) In Vivo Determination of Predictive Sedative-Hypnotic Action
The in vivo effects of these compounds were assessed by a predictive sedation-hypnosis test in mice (D. J. Sanger et al., Eur. J. Pharmacol., 313, 35-42, 1996; and G. Griebel et al., Psychopharmacology, 146, 205-213, 1999).
Groups of 5-8 male CD1 mice, weighing 22-26 g at the time of test, were used. The test compounds were administered in single equimolecular intraperitoneal doses, suspended in 0.25% agar with one drop of Tween in a volume of 10 mL/kg. Control animals received the vehicle alone. Using a Smart System (Panlab, S. L., Spain) the traveled distance in cm was recorded for each mouse at 5 min intervals during a period of 30 minutes after dosing. The inhibition percentage traveled distance of treated animals versus control animals (the first 5 min were discarded) was calculated.

α2-GABAA receptor = experiment: Ligand-binding assay, radiolabeled flumazenil competition, spinal cord membranes; design: species or system rat; conditions: for Affinity for the α2-subunit of the GABAA receptor, % inhibition: rat spinal cord membranes, radiolabeled flumazenil 1 nM
Method: (§1) a) Ligand-binding Assays. Determination of the Affinity of Test Compounds for α1- and α2-GABAA, Receptor
(§2) Male Sprague-Dawley rats weighing 200-250 g at the time of experiment were used. After decapitation of the animal, the cerebellum (tissue that mostly contains α1-GABAA receptor) and spinal cord (tissue that mostly contains α2-GABAA receptor) were removed. The membranes were prepared according to the method by J. Lameh et al. (Prog. Neuro-Psychopharmacol. Biol. Psychiatry, 24, 979-991, 2000) and H. Noguchi et al. (Eur J Pharm, 434, 21-28, 2002) with slight modifications. Once the tissues weighed, they were suspended in 50 mM Tris.HCl (pH 7.4), 1:40 (v/v), or sucrose 0.32 M in the case of spinal cord, homogenized and then centrifuged at 20,000 g for 10 min at 7° C. The resulting pellet was resuspended under the same conditions and centrifuged again. The pellet was finally resuspended on a minimum volume and kept at −80° C. overnight. On the next day, the process was repeated until the final pellet was resuspended at a ratio of 1:10 (v/v) in the case of cerebellum and at a ratio of 1:5 (v/v) in the case of spinal cord.
(§3) Affinity was determined by competitive tests using radiolabeled flumazenil as ligand. The tests were performed according to the methods described by S. Arbilla et al. (Eur. J. Pharmacol., 130, 257-263, 1986); and Y. Wu et al. (Eur. J. Pharmacol., 278, 125-132, 1995) using 96-well microtiter plates. The membranes containing the study receptors, flumazenil (radiolabeling at a final concentration of 1 nM) and ascending concentrations of test compounds (in a total volume of 230 μL in 50 mM [pH 7.4] Tris.HCl buffer) were incubated. Simultaneously, the membranes were only incubated with the radiolabeled flumazenil (total binding, 100%) and in the presence of an elevated concentration of unradiolabeled flumazenil (non-specific binding, % estimation of radiolabeled ligand). The reactions started on adding the radiolabeled ligand followed by incubation for 60 minutes at 4° C. At the end of the incubation period, 200 μL of reaction were transferred to a multiscreen plate (Millipore) and filtered using a vacuum manifold and then washed three times with cold test buffer. The multiscreen plates were equipped with a GF/B filter that retained the membranes containing the receptors and the radiolabeled ligand which had been bound to the receptors. After washing, the plates were left till dry. Once dried, scintillation liquid was added and left under stirring overnight. The next day the plates were counted using a Perkin-Elmer Microbeta scintillation counter.
(§4) For analysis of the results the percentage of specific binding for every concentration of test compound was calculated as follows:
(§5) % specific binding=(X−N/T−N)×100
(§6) where, X: amount of bound ligand for every concentration of compound. T: total binding, maximum amount bound to the radiolabeled ligand. N: non-specific binding, amount of radiolabeled ligand bound in a non-specific way irrespective of the receptor used.
(§7) Every concentrations of compound were tested in triplicate and their mean values were used to determine the experimental values of % specific binding versus the concentration of compound. Affinity data are expressed as % inhibition at 10^−5M and 10^−7M concentrations.

α1-GABAA receptor = experiment: Ligand-binding assay, radiolabeled flumazenil competition, cerebellum membranes; design: species or system rat; conditions: for Affinity for the α1-subunit of the GABAA receptor, % inhibition: rat cerebellum membranes, radiolabeled flumazenil 1 nM; for α1-/α2-selectivity (in words): compared with zolpidem
Method: as §1, §2, §3, §4, §5, §6, §7

SMILES	inhibition in vivo at 98 µmol/kg [1]	Affinity for the α2-subunit of the GABAA receptor, % inhibition (α2-GABAA receptor; 10^−5M)	Affinity for the α2-subunit of the GABAA receptor, % inhibition (α2-GABAA receptor; 10^−7M)	Affinity for the α1-subunit of the GABAA receptor, % inhibition (α1-GABAA receptor; 10^−5M)	Affinity for the α1-subunit of the GABAA receptor, % inhibition (α1-GABAA receptor; 10^−7M)	α1-/α2-selectivity (in words) (α1-GABAA receptor)	affinity for the α2-subunit of GABAA receptor (in words) (α2-GABAA receptor; compared with zolpidem where stated)
Cc1ccc2c(=O)c(-c3ccccc3)cn(CC(=O)N3CCCCC3)c2c1 [Example 15, 7-Methyl-1-(2-oxo-2-piperidin-1-yl-ethyl)-3-phenyl-1H-quinolin-4-one]	84.7%	13.3%	0.0%	87.3%	0.0%	higher α1-/α2-selectivity than the most selective therapeutically used compound zolpidem	
CCN(CC)C(=O)Cn1cc(-c2ccccc2)c(=O)c2ccc(C)cc21 [Example 17, N,N-Diethyl-2-(7-methyl-4-oxo-3-phenyl-4H-quinolin-1-yl)-acetamide]	81.5%	70.1%	0.0%	91.4%	0.7%		
Cc1ccc2c(=O)c(-c3ccccc3)cn(CC(=O)c3cccs3)c2c1 [Example 27, 7-Methyl-1-(2-oxo-2-thiophen-2-yl-ethyl)-3-phenyl-1H-quinolin-4-one]	70%	89.9%	8.4%	97.7%	14.0%		higher affinity than prior art compound zolpidem
Cc1ccc2c(=O)c(-c3ccccc3)cn(CC(=O)N3CC(C)OC(C)C3)c2c1 (centres unmarked) [Example 32, 1-[2-(2,6-Dimethyl-morpholin-4-yl)-2-oxo-ethyl]-7-methyl-3-phenyl-1H-quinolin-4-one]	90%	55.4%	0.0%	86.2%	18.4%	higher α1-/α2-selectivity than the most selective therapeutically used compound zolpidem	
